Data on 15 compounds can be found in ChEMBL document CHEMBL1909046, “DrugMatrix in vitro pharmacology data”.

Data set [1] has as its target T1, Alpha-2C adrenergic receptor (Homo sapiens, UniProt P18825).
T1 sequence (P18825 whole entry): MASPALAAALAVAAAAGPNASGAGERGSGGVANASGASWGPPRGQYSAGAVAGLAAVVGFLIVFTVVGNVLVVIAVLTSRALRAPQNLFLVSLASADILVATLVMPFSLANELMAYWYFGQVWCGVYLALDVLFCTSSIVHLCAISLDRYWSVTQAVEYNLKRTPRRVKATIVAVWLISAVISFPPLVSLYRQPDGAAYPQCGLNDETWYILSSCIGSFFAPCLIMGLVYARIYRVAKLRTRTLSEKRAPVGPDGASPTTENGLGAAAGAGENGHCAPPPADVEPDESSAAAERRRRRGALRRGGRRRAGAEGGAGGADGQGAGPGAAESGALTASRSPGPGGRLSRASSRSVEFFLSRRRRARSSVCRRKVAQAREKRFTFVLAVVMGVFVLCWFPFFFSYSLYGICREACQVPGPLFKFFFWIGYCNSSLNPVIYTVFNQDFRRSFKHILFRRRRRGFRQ
Put plainly: DRUGMATRIX: Adrenergic Alpha-2C radioligand binding (ligand: [3H] MK-912). Format: cell membranes, Sf9, Membrane. To be noted: sf9.

The nature of data set [2]: DRUGMATRIX: Calcium Channel Type L, Benzothiazepine radioligand binding (ligand: [3H] Diltiazem). To be noted: Not Active = under 50% inhibition at 10 µM. It counts as cell membranes, Rattus norvegicus, Wistar, Brain, Membrane.
Data set [3] in a line: DRUGMATRIX: Serotonin (5-Hydroxytryptamine) 5-HT3 radioligand binding (ligand: [3H] GR-65630). As to conditions: hek293; Not Active = under 50% inhibition at 10 µM. It counts as cell membranes, Membrane.
Data set [4] is described as follows: DRUGMATRIX: Glutamate, Kainate radioligand binding (ligand: [3H] Kainic acid). Format: cell membranes, Rattus norvegicus, Wistar, Brain, Membrane. As to conditions: Not Active = under 50% inhibition at 10 µM.
For data set [5], the target named is T2, Polyunsaturated fatty acid lipoxygenase ALOX15 (Oryctolagus cuniculus, UniProt P12530).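 Also: inhibition of 15-lipoxygenase enzyme activity measured with linoleic acid as the substrate; in other assays of this panel Not Active means under 50% inhibition at 10 µM.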
T2 sequence (P12530 whole entry): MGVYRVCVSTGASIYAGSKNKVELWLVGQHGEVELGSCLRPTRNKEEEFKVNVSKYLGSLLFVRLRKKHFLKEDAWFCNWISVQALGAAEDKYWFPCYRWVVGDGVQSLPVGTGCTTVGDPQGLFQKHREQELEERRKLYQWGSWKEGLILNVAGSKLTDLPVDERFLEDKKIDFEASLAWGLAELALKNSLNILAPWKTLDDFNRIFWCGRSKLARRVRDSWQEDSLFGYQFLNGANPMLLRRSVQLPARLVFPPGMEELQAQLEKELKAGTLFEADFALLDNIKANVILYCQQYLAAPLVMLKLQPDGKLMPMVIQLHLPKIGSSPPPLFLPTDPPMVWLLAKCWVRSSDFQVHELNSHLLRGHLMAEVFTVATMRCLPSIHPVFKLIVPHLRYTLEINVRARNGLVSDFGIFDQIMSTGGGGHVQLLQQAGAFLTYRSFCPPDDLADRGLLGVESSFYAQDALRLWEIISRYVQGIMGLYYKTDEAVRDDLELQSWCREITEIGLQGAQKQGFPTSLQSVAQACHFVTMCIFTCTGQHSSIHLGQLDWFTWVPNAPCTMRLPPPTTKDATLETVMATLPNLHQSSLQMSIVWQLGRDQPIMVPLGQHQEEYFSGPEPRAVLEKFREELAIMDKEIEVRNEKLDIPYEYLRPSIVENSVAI
Put plainly: biochemical. It counts as tissue-based, Reticulocytes.

For another data set, the target named is T3, Cytochrome P450 2A6 (Homo sapiens, UniProt P11509). Also: in other assays of this panel Not Active means under 50% inhibition at 10 µM.
T3 sequence (P11509 whole entry): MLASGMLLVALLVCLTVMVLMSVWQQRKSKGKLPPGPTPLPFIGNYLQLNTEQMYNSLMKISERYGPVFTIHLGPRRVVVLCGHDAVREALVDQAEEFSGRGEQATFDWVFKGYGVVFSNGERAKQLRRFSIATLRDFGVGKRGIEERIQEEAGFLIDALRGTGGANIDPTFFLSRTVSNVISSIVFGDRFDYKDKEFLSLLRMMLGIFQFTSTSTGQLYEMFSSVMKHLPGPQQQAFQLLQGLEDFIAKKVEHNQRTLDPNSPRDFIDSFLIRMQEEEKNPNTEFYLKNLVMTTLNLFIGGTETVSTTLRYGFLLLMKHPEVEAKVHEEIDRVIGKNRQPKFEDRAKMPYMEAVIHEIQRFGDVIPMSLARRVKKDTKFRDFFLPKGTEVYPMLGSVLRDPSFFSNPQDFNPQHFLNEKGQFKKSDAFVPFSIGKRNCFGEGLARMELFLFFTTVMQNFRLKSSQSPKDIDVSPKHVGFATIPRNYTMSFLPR
As to conditions: bti-tn-5b1-4.

`CC(=O)OCC(=O)[C@@]1(O)CC[C@H]2[C@@H]3CCC4=CC(=O)CC[C@]4(C)[C@@]3(F)[C@@H](O)C[C@@]21C` [FLUDROCORTISONE ACETATE]: the IC50 result (in data set [1]; in data set [2]; in data set [3]; in data set [4]; in data set [5] (reticulocytes); at Cytochrome P450 2A6) was “Not Active” in each case. Further, the Ki result (in data set [2]; in data set [3]; in data set [4]; on Cytochrome P450 2A6) was “Not Active” throughout.
In the case of `CCOC(=O)c1ncn2c1CN(C)C(=O)c1cc(F)ccc1-2` [FLUMAZENIL], the IC50 result (in data set [1]; in data set [2]; in data set [3]; in data set [4]; in data set [5] (reticulocytes); against Cytochrome P450 2A6) was “Not Active” in each case. Further, the Ki result (in data set [2]; in data set [3]; in data set [4]; at Cytochrome P450 2A6) was “Not Active” in each case.
`O=C(O)P(=O)(O)O` [FOSCARNET]: the IC50 result (in data set [1]; in data set [2]; in data set [3]; in data set [4]; in data set [5] (reticulocytes); at Cytochrome P450 2A6) was “Not Active” in each case. Further, the Ki result (in data set [2]; in data set [3]; in data set [4]; on Cytochrome P450 2A6) was “Not Active” each time.
As to `Cc1ccc(C)c(OCCCC(C)(C)C(=O)O)c1` [GEMFIBROZIL], the IC50 entry (in data set [1]; in data set [2]; in data set [3]; in data set [4]; in data set [5] (reticulocytes); on Cytochrome P450 2A6) was “Not Active” each time. The Ki result (in data set [2]; in data set [3]; in data set [4]; at Cytochrome P450 2A6) was “Not Active” throughout.
Consider `O=c1c(-c2ccc(O)cc2)coc2cc(O)cc(O)c12` [GENISTEIN], for which the IC50 entry is “Not Active” in data set [1]; “Not Active” in data set [2]; “Not Active” in data set [3]; “Not Active” in data set [4]; 9.03 µM in data set [5] (read-out: IC50); “Not Active” at Cytochrome P450 2A6. Also, the Ki entry (in data set [2]; in data set [3]; in data set [4]; at Cytochrome P450 2A6) was “Not Active” in each case.
For `CCC1=C(C)CN(C(=O)NCCc2ccc(S(=O)(=O)NC(=O)N[C@H]3CC[C@H](C)CC3)cc2)C1=O` [GLIMEPIRIDE], the half-inhibitory concentration (IC50) result (in data set [1]; in data set [2]; in data set [3]; in data set [4]; in data set [5] (reticulocytes); on Cytochrome P450 2A6) was “Not Active” in each case. Moreover, the Ki result (in data set [2]; in data set [3]; in data set [4]; at Cytochrome P450 2A6) was “Not Active” each time.
Consider `Nc1cc(-c2ccncc2)c[nH]c1=O` [INAMRINONE], for which the half-inhibitory concentration (IC50) entry (in data set [1]; in data set [2]; in data set [3]; in data set [4]; in data set [5] (reticulocytes); against Cytochrome P450 2A6) was “Not Active” throughout. Also, the Ki result (in data set [2]; in data set [3]; in data set [4]; on Cytochrome P450 2A6) was “Not Active” throughout.
On to `CCCCC1=NC2(CCCC2)C(=O)N1Cc1ccc(-c2ccccc2-c2nnn[nH]2)cc1` [IRBESARTAN], for which the IC50 entry (in data set [1]; in data set [2]; in data set [3]; in data set [4]; in data set [5] (reticulocytes); against Cytochrome P450 2A6) was “Not Active” each time. The Ki result (in data set [2]; in data set [3]; in data set [4]; at Cytochrome P450 2A6) was “Not Active” in each case.
Regarding `CN1CCC(=C2c3ccccc3CC(=O)c3sccc32)CC1` [KETOTIFEN], the IC50 result in data set [1] is “Not Active”; in data set [2] (read-out: IC50), 2.31 µM; in data set [3] it was “Not Active”; in data set [4] it was “Not Active”; in data set [5] (reticulocytes), “Not Active”; at Cytochrome P450 2A6 it was “Not Active”. Further, the Ki is 2.05 µM in data set [2] (read-out: Ki), “Not Active” in data set [3], “Not Active” in data set [4] and “Not Active” at Cytochrome P450 2A6.
Regarding `C[N+](C)(C)C[C@H](O)CC(=O)[O-]` [LEVOCARNITINE], the half-inhibitory concentration (IC50) result (in data set [1]; in data set [2]; in data set [3]; in data set [4]; in data set [5] (reticulocytes); against Cytochrome P450 2A6) was “Not Active” each time. Further, the Ki result (in data set [2]; in data set [3]; in data set [4]; at Cytochrome P450 2A6) was “Not Active” throughout.
As for `C[C@H]1COc2c(N3CCN(C)CC3)c(F)cc3c(=O)c(C(=O)O)cn1c23.C[C@H]1COc2c(N3CCN(C)CC3)c(F)cc3c(=O)c(C(=O)O)cn1c23.O` [LEVOFLOXACIN], the IC50 entry (in data set [1]; in data set [2]; in data set [3]; in data set [4]; in data set [5] (reticulocytes); against Cytochrome P450 2A6) was “Not Active” each time. Also, the Ki result (in data set [2]; in data set [3]; in data set [4]; on Cytochrome P450 2A6) was “Not Active” in each case.
For `CCn1cc(C(=O)O)c(=O)c2cc(F)c(N3CCNC(C)C3)c(F)c21` (stereo not given) [LOMEFLOXACIN], the concentration for half-maximal inhibition (IC50) entry (in data set [1]; in data set [2]; in data set [3]; in data set [4]; in data set [5] (reticulocytes); against Cytochrome P450 2A6) was “Not Active” throughout. Besides, the inhibitory constant (Ki) result (in data set [2]; in data set [3]; in data set [4]; at Cytochrome P450 2A6) was “Not Active” in each case.
Turning to `CN1CCCC(CN2c3ccccc3Sc3ccccc32)C1` (stereo not given) [MEPAZINE], the IC50 entry (in data set [1]; in data set [2]; in data set [3]; in data set [4]; in data set [5] (reticulocytes); against Cytochrome P450 2A6) was “Not Active” throughout. The Ki entry (in data set [2]; in data set [3]; in data set [4]; at Cytochrome P450 2A6) was “Not Active” in each case.
In the case of `Cc1cccc(C)c1NC(=O)C1CCCCN1C` (stereo not given) [MEPIVACAINE], the IC50 entry (in data set [1]; in data set [2]; in data set [3]; in data set [4]; in data set [5] (reticulocytes); against Cytochrome P450 2A6) was “Not Active” throughout. Also, the Ki entry (in data set [2]; in data set [3]; in data set [4]; at Cytochrome P450 2A6) was “Not Active” throughout.
On to `CN(C)C(=N)NC(=N)N` [METFORMIN], for which the concentration for half-maximal inhibition (IC50) entry (in data set [1]; in data set [2]; in data set [3]; in data set [4]; in data set [5] (reticulocytes); on Cytochrome P450 2A6) was “Not Active” in each case. Further, the Ki entry (in data set [2]; in data set [3]; in data set [4]; on Cytochrome P450 2A6) was “Not Active” throughout.

Usually IC50 stands for the concentration that inhibits the measured activity by half. In general, Ki refers to a measure of affinity in units of concentration, obtained from inhibition or displacement.
